This is an account of results in publication PMC3807247 (Journal of the American Chemical Society, 2009).

The structures appear in SMILES notation. Where two headings read alike, the source gives them in different places. Bounds are passed on as bounds.

The target of experiment [1] is full length Udorn AM2 protein (Influenza A virus, UniProt P0DOF5). In words: Two-electrode voltage clamp. Type of experiment: cell-based, influenza virus A/Udorn/72. The conditions noted are these: for AM2 remaing Activity after 100uM inhibition: Table 1, 100 uM inhibitor, pH 5.5, -20 mV; for inhibitory activity against AM2 (in words): tested at 100 μM. On the technique in general: Two-electrode voltage clamp is typically applied to oocytes expressing channels or transporters.
full length Udorn AM2 protein, sequence (P0DOF5 whole entry, looked up): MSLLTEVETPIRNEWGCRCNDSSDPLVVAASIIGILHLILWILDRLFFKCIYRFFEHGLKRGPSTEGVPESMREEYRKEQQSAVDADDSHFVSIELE

The test system of experiment [2] is AM2 channel expressed in Xenopus oocytes. The conditions noted are these: BL-1743, TEV; cited from earlier work.
Setting [3] is: read-out: Activity remaining activity after 100uM inhibition.

Turning to `C1CCC2(CC1)CCN(C1=NCCN1)CC2.I` [BL-1743, 3-(4,5-Dihydro-1H-imidazol-2-yl)-3-azaspiro[5,5]undecane Hydroiodide, reference compound], the “AM2 remaing Activity after 100uM inhibition” value in experiment [1] (TEV, Xenopus oocytes) was determined as 25%. Also, the “Hill coefficient for inhibition” value in experiment [2] is 1.0.

With `C1CCC2(CC1)CCN(CC1CC1)CC2` [Compound 1, 3-(Cyclopropylmethyl)-3-azaspiro[5,5]undecane], the “AM2 remaing Activity after 100uM inhibition” value in experiment [1] (TEV, Xenopus oocytes) is given as 100%.

Take `C1CCC2(CC1)CCN(CC1CCCC1)CC2` [Compound 2, 3-(Cyclopentylmethyl)-3-azaspiro[5,5]undecane]: in experiment [1] (TEV, Xenopus oocytes), the “AM2 remaing Activity after 100uM inhibition” value is on record as 100%.

Consider `c1cc(CN2CCC3(CCCCC3)CC2)cs1` [Compound 3, 3-(Thiophen-3-ylmethyl)-3-azaspiro[5,5]undecane], for which the “AM2 remaing Activity after 100uM inhibition” value in experiment [1] (TEV, Xenopus oocytes) turned out to be 90%.

As to `Cn1cc(CN2CCC3(CCCCC3)CC2)cn1` [Compound 4, 3-((1-Methyl-1H-pyrazol-4-yl)methyl)-3-azaspiro[5,5]undecane], in experiment [1] (TEV, Xenopus oocytes), the “AM2 remaing Activity after 100uM inhibition” value came out at 100%.

As to `Cc1cc(CN2CCC3(CCCCC3)CC2)no1` [Compound 5, 3-(3-Azaspiro[5,5]undecan-3-ylmethyl)-5-methylisoxazole], in experiment [1] (TEV, Xenopus oocytes), the “AM2 remaing Activity after 100uM inhibition” value is on record as 100%.

`c1ccc(CN2CCC3(CCCCC3)CC2)nc1` [Compound 6, 3-(Pyridin-2-ylmethyl)-3-azaspiro[5,5]undecane]: the “AM2 remaing Activity after 100uM inhibition” value in experiment [1] (TEV, Xenopus oocytes) was determined as 100%.

With `c1nc(CN2CCC3(CCCCC3)CC2)c[nH]1` [Compound 7, 3-((1H-Imidazol-4-yl)methyl)-3-azaspiro[5.5]undecane], the “AM2 remaing Activity after 100uM inhibition” value in experiment [1] (TEV, Xenopus oocytes) came out at 70%. The “inhibitory activity against AM2 (in words)” value (from here on “inhibitory activity”) in experiment [1] is on record as “moderate inhibition”.

As to `c1c[nH]c(CN2CCC3(CCCCC3)CC2)n1` [Compound 8, 3-((1H-Imidazol-2-yl)methyl)-3-azaspiro[5.5]undecane], the “AM2 remaing Activity after 100uM inhibition” value in experiment [1] (TEV, Xenopus oocytes) turned out to be 49%. Besides, the “inhibitory activity” value in experiment [1] is on record as “moderate inhibition”.

With `C1CCC2(CC1)CCNCC2.Cl` [Compound 9, 3-Azaspiro[5,5]undecane Chloride], 0.92 ± 0.11 µM corresponded to half-maximal inhibition in experiment [1] (Table 2, TEV, Xenopus oocytes) (IC50). In addition, the “increase in potency relative to BL-1743” value in experiment [1] (ratio of IC50 values) is “more than 45 fold”.

Regarding `CN1CCC2(CCCCC2)CC1.Cl` [Compound 10, 3-Methyl-3-azoniaspiro[5,5]undecane Chloride], the “decrease in activity relative to spiro-piperidine 9” value in experiment [1] (ratio of IC50 values) was “approximately 20 fold”.

On to `NC(=O)N1CCC2(CCCCC2)CC1` [Compound 12, 3-Azaspiro[5,5]undecane-3-carboxamide], for which the “inhibitory activity” value in experiment [1] is listed as “not active”.

`NC(=S)N1CCC2(CCCCC2)CC1` [Compound 13, 3-Azaspiro[5,5]undecane-3-carbothioamide]: in experiment [1], the “inhibitory activity” value is “not active”.

`C1CCC2(CC1)CCNC2` [Compound 16, 2-Azoniaspiro[4,5]decane Chloride]: inhibition in experiment [1] was half-maximal at 12 ± 1.6 µM (IC50).

The molecule `C1COC2(CCNCC2)OC1` [Compound 17, 1,5-Dioxa-9-azaspiro[5,5]undecane] registered an IC50 in experiment [1] greater than 100 µM. In experiment [1] (setting [3]), the remaining activity at 100 µM was found to be 100%.

`C1CSC2(CCNCC2)SC1` [Compound 18, 1,5-Dithia-9-azaspiro[5,5]undecane]: the IC50 in experiment [1] is 37.6 ± 2.67 µM. Further, the remaining activity at 100 µM in experiment [1] (setting [3]) stood at 12%.

Turning to `CCC1(C)CCNCC1` [Compound 20, 4-Ethyl-4-methylpiperidinium Chloride], the remaining activity at 100 µM in experiment [1] (read-out: AM2 remaining Activity after 100uM inhibition) was found to be 22%.

What is called IC50 is the midpoint of a concentration-inhibition curve. A lower IC50 goes with greater potency in that assay. For orientation: remaining activity means the signal under treatment as a percentage of the control signal.
